{"source": "patent US9084828B2", "about": "“Oligomer-protein tyrosine kinase inhibitor conjugates” (Nektar Therapeutics, priority 2009, dated 2015)", "target": "ABL (Homo sapiens, UniProt P00519)", "sequence (P00519 whole entry)": "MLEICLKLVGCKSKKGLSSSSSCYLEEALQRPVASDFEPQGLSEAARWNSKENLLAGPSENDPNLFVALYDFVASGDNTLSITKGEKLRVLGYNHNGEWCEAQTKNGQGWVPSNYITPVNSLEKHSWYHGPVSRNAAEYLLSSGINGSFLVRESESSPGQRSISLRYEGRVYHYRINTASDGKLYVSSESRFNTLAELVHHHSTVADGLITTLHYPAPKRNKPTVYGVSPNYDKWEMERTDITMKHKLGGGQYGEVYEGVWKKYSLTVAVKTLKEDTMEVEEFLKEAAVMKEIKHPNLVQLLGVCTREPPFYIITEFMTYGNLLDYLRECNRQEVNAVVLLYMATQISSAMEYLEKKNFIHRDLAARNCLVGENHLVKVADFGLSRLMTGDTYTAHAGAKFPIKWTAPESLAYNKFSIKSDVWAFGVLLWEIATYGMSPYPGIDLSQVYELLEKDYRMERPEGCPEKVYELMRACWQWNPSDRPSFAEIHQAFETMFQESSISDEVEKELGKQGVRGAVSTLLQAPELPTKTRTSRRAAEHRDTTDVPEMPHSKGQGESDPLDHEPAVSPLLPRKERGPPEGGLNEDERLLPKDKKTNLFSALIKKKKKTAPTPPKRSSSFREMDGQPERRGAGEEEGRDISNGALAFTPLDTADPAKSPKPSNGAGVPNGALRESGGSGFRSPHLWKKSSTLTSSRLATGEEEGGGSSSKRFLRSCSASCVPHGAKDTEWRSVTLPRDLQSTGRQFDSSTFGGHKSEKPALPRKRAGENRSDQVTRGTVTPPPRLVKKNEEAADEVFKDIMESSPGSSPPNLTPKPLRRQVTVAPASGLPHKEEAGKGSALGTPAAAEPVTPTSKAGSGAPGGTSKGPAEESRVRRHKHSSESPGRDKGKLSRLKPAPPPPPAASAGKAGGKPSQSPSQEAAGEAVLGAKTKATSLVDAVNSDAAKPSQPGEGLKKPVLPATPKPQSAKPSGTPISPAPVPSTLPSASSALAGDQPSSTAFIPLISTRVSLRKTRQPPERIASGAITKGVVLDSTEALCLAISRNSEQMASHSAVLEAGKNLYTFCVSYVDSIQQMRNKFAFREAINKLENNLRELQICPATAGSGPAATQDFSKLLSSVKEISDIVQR", "assay": "ABL tyrosine kinase inhibition, off-chip incubation mobility-shift kinase assay (Caliper LABCHIP 3000)", "settings": "for IC50: ABL, ATP at Km 14 μM, unit inferred; for ABL AVG % Activity at Specific Concentration: average of replicate wells", "key": {"[1]": {"settings": "at 1.0E−09 (concentration unit not given)"}, "[2]": {"settings": "at 1.0E−10 (concentration unit not given)"}, "[3]": {"settings": "at 1.0E−11 (concentration unit not given)"}, "[4]": {"settings": "at 3.0E−09 (concentration unit not given)"}, "[5]": {"settings": "at 3.0E−10 (concentration unit not given)"}, "[6]": {"settings": "at 3.0E−11 (concentration unit not given)"}}}
{"smiles": "COCCOCCOCCOCC(=O)OCCN1CCN(c2cc(Nc3ncc(C(=O)Nc4c(C)cccc4Cl)s3)nc(C)n2)CC1", "note": "[mPEG3-COO-Dasatinib]", "values": [{"measurement": "IC50", "result": 0.29, "unit": "nM"}, {"measurement": "ABL AVG % Activity at Specific Concentration", "setting": "[1]", "result": 2, "unit": "%"}, {"measurement": "ABL AVG % Activity at Specific Concentration", "setting": "[2]", "result": 80, "unit": "%"}, {"measurement": "ABL AVG % Activity at Specific Concentration", "setting": "[3]", "result": 98, "unit": "%"}, {"measurement": "ABL AVG % Activity at Specific Concentration", "setting": "[4]", "result": "−1", "unit": "%"}, {"measurement": "ABL AVG % Activity at Specific Concentration", "setting": "[5]", "result": 44, "unit": "%"}, {"measurement": "ABL AVG % Activity at Specific Concentration", "setting": "[6]", "result": 92, "unit": "%"}]}
{"smiles": "COCCOCCOCCOCC(=O)NC(CC(C)C)C(=O)OCCN1CCN(c2cc(Nc3ncc(C(=O)Nc4c(C)cccc4Cl)s3)nc(C)n2)CC1", "note": "(centres unmarked) [mPEG3-Leu-Dasatinib]", "values": [{"measurement": "IC50", "result": 0.43, "unit": "nM"}, {"measurement": "ABL AVG % Activity at Specific Concentration", "setting": "[1]", "result": 14, "unit": "%"}, {"measurement": "ABL AVG % Activity at Specific Concentration", "setting": "[2]", "result": 85, "unit": "%"}, {"measurement": "ABL AVG % Activity at Specific Concentration", "setting": "[3]", "result": 99, "unit": "%"}, {"measurement": "ABL AVG % Activity at Specific Concentration", "setting": "[4]", "result": 1, "unit": "%"}, {"measurement": "ABL AVG % Activity at Specific Concentration", "setting": "[5]", "result": 62, "unit": "%"}, {"measurement": "ABL AVG % Activity at Specific Concentration", "setting": "[6]", "result": 97, "unit": "%"}]}
{"smiles": "COCCOCCOCCOCC(=O)N[C@H](C(=O)OCCN1CCN(c2cc(Nc3ncc(C(=O)Nc4c(C)cccc4Cl)s3)nc(C)n2)CC1)C(C)C", "note": "[mPEG3-Val-Dasatinib]", "values": [{"measurement": "IC50", "result": 0.37, "unit": "nM"}, {"measurement": "ABL AVG % Activity at Specific Concentration", "setting": "[1]", "result": 10, "unit": "%"}, {"measurement": "ABL AVG % Activity at Specific Concentration", "setting": "[2]", "result": 85, "unit": "%"}, {"measurement": "ABL AVG % Activity at Specific Concentration", "setting": "[3]", "result": 98, "unit": "%"}, {"measurement": "ABL AVG % Activity at Specific Concentration", "setting": "[4]", "result": 0, "unit": "%"}, {"measurement": "ABL AVG % Activity at Specific Concentration", "setting": "[5]", "result": 54, "unit": "%"}, {"measurement": "ABL AVG % Activity at Specific Concentration", "setting": "[6]", "result": 95, "unit": "%"}]}
{"smiles": "COCCOCCOCCOCCOCCNC(=O)OCCN1CCN(c2cc(Nc3ncc(C(=O)Nc4c(C)cccc4Cl)s3)nc(C)n2)CC1", "note": "[mPEG5-NHCOO-Dasatinib]", "values": [{"measurement": "IC50", "result": 0.3, "unit": "nM"}, {"measurement": "ABL AVG % Activity at Specific Concentration", "setting": "[1]", "result": 4, "unit": "%"}, {"measurement": "ABL AVG % Activity at Specific Concentration", "setting": "[2]", "result": 80, "unit": "%"}, {"measurement": "ABL AVG % Activity at Specific Concentration", "setting": "[3]", "result": 97, "unit": "%"}, {"measurement": "ABL AVG % Activity at Specific Concentration", "setting": "[4]", "result": "−1", "unit": "%"}, {"measurement": "ABL AVG % Activity at Specific Concentration", "setting": "[5]", "result": 45, "unit": "%"}, {"measurement": "ABL AVG % Activity at Specific Concentration", "setting": "[6]", "result": 94, "unit": "%"}]}
{"smiles": "COCCOCCOCCOCCOCCOCCOCCOCCOCCNC(=O)OCCN1CCN(c2cc(Nc3ncc(C(=O)Nc4c(C)cccc4Cl)s3)nc(C)n2)CC1", "note": "[mPEG9-NHCOO-Dasatinib]", "values": [{"measurement": "IC50", "result": 0.31, "unit": "nM"}, {"measurement": "ABL AVG % Activity at Specific Concentration", "setting": "[1]", "result": 4, "unit": "%"}, {"measurement": "ABL AVG % Activity at Specific Concentration", "setting": "[2]", "result": 80, "unit": "%"}, {"measurement": "ABL AVG % Activity at Specific Concentration", "setting": "[3]", "result": 97, "unit": "%"}, {"measurement": "ABL AVG % Activity at Specific Concentration", "setting": "[4]", "result": "−1", "unit": "%"}, {"measurement": "ABL AVG % Activity at Specific Concentration", "setting": "[5]", "result": 47, "unit": "%"}, {"measurement": "ABL AVG % Activity at Specific Concentration", "setting": "[6]", "result": 92, "unit": "%"}]}
